From patent US5736518A, “Peptide compounds of (L) amino acids and ring molecules, and therapeutical applications thereof” (Polifarma S.p.A., priority 1990, dated 1998)
Square brackets hold non-standard residues; d marks the D form. Peptide text beside a SMILES is read from it. * marks the point of attachment. Trp(1-Me) = Cn1cc(C[C@H](N)C(=O)O)c2ccccc21; Tic = O=C(O)[C@@H]1Cc2ccccc2CN1; pGlu = O=C1CC[CH](C(=O)O)N1; Hyp = O=C(O)[CH]1C[CH](O)CN1; Phg = N[CH](C(=O)O)c1ccccc1; ΔPro = O=C(O)[C@@H]1C=CCN1; Pip = O=C(O)[C@@H]1CCCCN1; αMeP = C[C]1(C(=O)O)CCCN1; Cbz = O=C(OCc1ccccc1)*; Aze = O=C(O)[CH]1CCN1; Boc = CC(C)(C)OC(=O)*

How the values were obtained:
[1] = Hot Plate test (analgesic activity); type: in vivo
Text: (§1) In the following examples will first of all be given the data necessary for synthesis of the compounds according to the present invention. There will then be given data regarding their pharmacological activity, using methods widely known to be valid. In particular, for the pressure tests, spontaneously hyper-tensive rats were used (SHR from the company Charles River), operated in such a way as to enable pressure to be read even when the animals were awake and free to move. In order to evaluate the analgesic activity, the Hot Plate and Writhing Tests were used. For the anti-inflammatory effect the test of carraginine edema was used. Finally, for immuno-modulating activity the evaluation of the stimulation of growth of human lymphocytes in culture was resorted to, after the addition of specific antigens. The results obtained for each synthesized compound are given at the end of each example.

[2] = system: spontaneously hyper-tensive rats (SHR from the company Charles River); test: pressure tests in spontaneously hypertensive rats, awake and free to move; type: in vivo
Text: as §1, with “antigens.” for “antigens. The results obtained for each synthesized compound are given at the end of each example.”

[3] = system: human lymphocytes in culture; test: immuno-modulating activity: stimulation of growth of human lymphocytes in culture after addition of specific antigens; type: cell-based; conditions: for immune response / immuno-stimulating activity (in words): human lymphocytes in culture, antigen not stated
Text: as §1

[4] = analgesic activity, test not given (Hot Plate and Writhing Tests were used); type: in vivo; conditions: test and dose not stated
Text: as §1

[5] = system: carraginine edema; test: anti-inflammatory effect, test of carraginine edema; type: in vivo; conditions: edema from carrageenin; dose not stated
Text: as §1

CCOC(=O)[C@@H]1Cc2c([nH]c3ccccc23)CN1C(=O)[C@H](C)NC(=O)[C@@H]1CCCN1C(=O)OCc1ccccc1 [compound 1, Z-(L)-Pro-(L)-Ala-(S)-CytOEt]
pain killing effect under the Hot Plate test (in words) ([1]; 4 mg/Kg i.p.): slight pain killing effect
anti-hypertensive effect (in words) ([2]; 4 mg/Kg i.p.): good anti-hypertensive effect
duration of the anti-hypertensive effect ([2]; 4 mg/Kg i.p.): a number of hours
reduction of pressure values ([2]; 4 mg/Kg i.p.): 15-20%
response of lymphocytes stimulated by phytohemoagglutinine (PHA) (in words) ([3]; PHA stimulated lymphocytes): increases the response of lymphocytes

COC(=O)[C@@H](NC(=O)[C@H](C)NC(=O)[C@@H]1CCCN1C(=O)OCc1ccccc1)c1ccccc1 [compound 5, Z-(L)-Pro-(L)-Ala-(L)-PhgOMe] (Cbz-Pro-Ala-[Phg]-OMe)
analgesic effect, Hot Plate test (in words) ([1]; dose not stated): moderate analgesic effect
anti-hypertensive effect (in words) ([2]; 8 mg/Kg i.p.): bland anti-hypertensive effect

COC(=O)C(Cc1c[nH]c2ccccc12)NC(=O)C(CC(C)C)NC(=O)C1CCCN1C.Cl (stereo not drawn) [compound 10, N-Me-(L)-Pro-(L)-Leu-(L)-TrpOMe.HCl]
anti-hypertensive effect (in words) ([2]; 2 mg/Kg i.v.): excellent anti-hypertensive effect
reduction of pressure ([2]; 2 mg/Kg i.v.): 15-20%
immune response / immuno-stimulating activity (in words) [3]: slightly increased
analgesic effect (in words) [4]: low analgesic effect

COC(=O)[C@H](Cc1c[nH]c2ccccc12)NC(=O)[C@H](CC(C)C)NC(=O)[C@@H]1CCCCN1C(=O)OCc1ccccc1 [compound 15, Z-(L)-Pip-(L)-Leu-(L)-TrPOMe] (Cbz-[Pip]-Leu-Trp-OMe)
anti-hypertensive effect (in words) ([2]; 2 mg/Kg i.v.): good anti-hypertensive effect
reduction of pressure ([2]; 2 mg/Kg i.v.): up to 30%
anti-inflammatory effect (in words) [5]: consistent
immune response / immuno-stimulating activity (in words) [3]: slight increase in immune response

COC[C@H](Cc1ccccc1)NC(=O)[C@H](C)NC(=O)[C@@H]1CCCN1C(=O)OCc1ccccc1 [compound 6, Z-(L)-Pro-(L)-Ala-(L)-Pme]
anti-hypertensive effect (in words) ([2]; 2 mg/Kg i.v.): good anti-hypertensive activity
reduction of pressure after one hour ([2]; 2 mg/Kg i.v., after one hour): approximately 25%
anti-inflammatory effect (in words) [5]: rather weak
immune response / immuno-stimulating activity (in words) [3]: more consistent
analgesic effect (in words) [4]: good analgesic activity

COC(=O)C(Cc1c[nH]c2ccccc12)NC(=O)C(CC(C)C)NC(=O)C1CCN1C(=O)OCc1ccccc1 [compound 17, Z-(S)-Aze-(L)-Leu-(L)-TrpOMe] (Cbz-[Aze]-Leu-Trp-OMe; configuration not given here)
anti-hypertensive effect (in words) ([2]; dose not stated): slight anti-hypertensive effect
anti-inflammatory effect (in words) [5]: bland anti-inflammatory activity

C[C@H](NC(=O)[C@@H]1CCCN1C(=O)OCc1ccccc1)C(=O)N1CCc2c([nH]c3ccccc23)C1 [compound 3, Z-(L)-Pro-(L)-Ala-CytH]
anti-hypertensive effect (in words) ([2]; 8 mg/Kg i.p.): bland anti-hypertensive effect

COC(=O)[C@H](Cc1c[nH]c2ccccc12)NC(=O)[C@H](CC(C)C)NC(=O)[C@@H]1C=CCN1C(=O)OC(C)(C)C [compound 13, Boc-.gradient.^3,4 -(L)-Pro-(L)-Leu-(L)-TrpOMe] (Boc-[ΔPro]-Leu-Trp-OMe)
anti-hypertensive effect (in words) ([2]; dose not stated): slightly anti-hypertensive
immune response / immuno-stimulating activity (in words) [3]: slightly increases the immune response

COC(=O)[C@H](Cc1cn(C)c2ccccc12)NC(=O)[C@H](C)NC(=O)[C@@H]1CCCN1C(=O)OCc1ccccc1 [compound 7, Z-(L)-Pro-(L)-Ala-(1)-Me-(L)-TrpOMe] (Cbz-Pro-Ala-[Trp(1-Me)]-OMe)
anti-hypertensive effect (in words) ([2]; 2 mg/Kg i.v.): good anti-hypertensive effect
reduction of pressure ([2]; 2 mg/Kg i.v.): 10%

COC(=O)[C@@H]1Cc2c([nH]c3ccccc23)CN1C(=O)[C@H](CC(C)C)NC(=O)[C@@H]1CCC(=O)N1 [compound 25, (L)-Pyr-(L)-Leu-(S)-CytOMe]
anti-hypertensive effect (in words) ([2]; dose not stated): bland anti-hypertensive effect
analgesic effect (in words) [4]: weak analgesic activity

COC(=O)[C@@H]1Cc2ccccc2CN1C(=O)[C@H](C)NC(=O)[C@@H]1CCCN1C(=O)OCc1ccccc1 [compound 11, Z-(L)-Pro-(L)-Ala(L)-CypOMe] (Cbz-Pro-Ala-[Tic]-OMe)
anti-hypertensive effect (in words) ([2]; dose not stated): slight anti-hypertensive effect
anti-inflammatory effect (in words) [5]: moderate anti-inflammatory effect

COC(=O)C(NC(=O)CNC(=O)C1CCC(=O)N1)c1ccccc1 (stereo not drawn) [compound 22, (L)-Pyr-Gly-(L)-PhgOMe] ([pGlu]-Gly-[Phg]-OMe; configuration not given here)
anti-hypertensive effect (in words) ([2]; 4 mg/Kg i.p.): excellent anti-hypertensive activity
reduction of pressure values ([2]; 4 mg/Kg i.p.): 20%
anti-inflammatory effect (in words) [5]: very good
immune response / immuno-stimulating activity (in words) [3]: appears to increase the immune response

COC[C@H](Cc1ccccc1)NC(=O)CNC(=O)[C@@H]1CCC(=O)N1 [compound 23, (L)-Pyr-Gly-(L)-Pme]
anti-hypertensive effect (in words) ([2]; 8 mg/Kg i.p.): good anti-hypertensive activity
immune response / immuno-stimulating activity (in words) [3]: good immuno-stimulating effect
analgesic effect (in words) [4]: excellent analgesic effect

COC(=O)C(Cc1c[nH]c2ccccc12)NC(=O)C(CC(C)C)NC(=O)C1(C)CCCN1C(=O)OC(C)(C)C (stereo not drawn) [compound 12, Boc-(L)-Mep-(L)-Leu-(L)-TrpOMe] (Boc-[αMeP]-Leu-Trp-OMe; configuration not given here)
anti-hypertensive effect (in words) ([2]; dose not stated): bland anti-hypertensive effect
anti-inflammatory effect (in words) [5]: reduction of the inflammatory response

COC(=O)[C@H](Cc1c[nH]c2ccccc12)NC(=O)[C@H](CC(C)C)NC(=O)[C@@H]1CCCO1 [compound 18, (S)-Tfc-(L)-Leu-(L)-TrpOMe]
anti-hypertensive effect (in words) ([2]; dose not stated): bland anti-hypertensive effect
immune response / immuno-stimulating activity (in words) [3]: stimulates the immune response in a moderate manner

COC(=O)[C@H](Cc1c[nH]c2ccccc12)NC(=O)[C@H](CC(C)C)NC(=O)[C@@H]1CCC(=O)N1C(=O)OCc1ccccc1 [compound 19, Z-(L)-Pyr-(L)-Leu-(L)-TrpOMe]
anti-hypertensive effect (in words) ([2]; dose not stated): slight anti-hypertensive effect
anti-inflammatory effect (in words) [5]: fair anti-inflammatory activity

COC(=O)[C@@H]1Cc2c([nH]c3ccccc23)CN1C(=O)[C@H](CC(C)C)NC(=O)[C@@H]1CCC(=O)N1C(=O)OCc1ccccc1 [compound 20, Z-(L)-Pyr-(L)-Leu-(S)-CytOMe]
anti-hypertensive effect (in words) ([2]; dose not stated): bland anti-hypertensive activity
anti-inflammatory effect (in words) [5]: fair anti-inflammatory activity

COC(=O)C(Cc1c[nH]c2ccccc12)NC(=O)C(CC(C)C)NC(=O)C1CC(O)CN1C(=O)OCc1ccccc1 (stereo not drawn) [compound 16, Z-(L)-Hyp-(L)-Leu-(L)-TrpOMe] (Cbz-[Hyp]-Leu-Trp-OMe; configuration not given here)
anti-hypertensive effect (in words) ([2]; dose not stated): bland anti-hypertensive action
analgesic effect (in words) [4]: modest analgesic effect

COC(=O)[C@H](Cc1ccc(OC)cc1)NC(=O)[C@H](C)NC(=O)[C@@H]1CCCN1C(=O)OCc1ccccc1 [compound 4, Z-(L)-Pro-(L)-Ala-(L)-OmtOMe] (Cbz-Pro-Ala-Tyr(Me)-OMe)
anti-hypertensive effect (in words) ([2]; 8 mg/Kg i.v.): bland anti-hypertensive effect
immune response / immuno-stimulating activity (in words) [3]: slightly increased

COC(=O)[C@@H]1Cc2ccccc2CN1C(=O)[C@H](CC(C)C)NC(=O)[C@@H]1CCC(=O)N1C(=O)OCc1ccccc1 [compound 21, Z-(L)-Pyr-(L)-Leu-(S)-CyPOMe]
anti-hypertensive effect (in words) ([2]; dose not stated): slight anti-hypertensive activity
immune response / immuno-stimulating activity (in words) [3]: good immuno-stimulating activity

COC(=O)[C@@H]1Cc2ccccc2CN1C(=O)CNC(=O)[C@@H]1CCC(=O)N1 [compound 24, (L)-Pyr-Gly-(L)-CypOMe] ([pGlu]-Gly-[Tic]-OMe)
anti-hypertensive effect (in words) ([2]; dose not stated): bland anti-hypertensive action
anti-inflammatory effect (in words) [5]: moderate anti-inflammatory action

COC(=O)[C@H](Cc1c[nH]c2ccccc12)NC(=O)[C@H](CC(C)C)NC(=O)[C@@H]1Cc2ccccc2N1C(=O)OCc1ccccc1 [compound 14, Z-(S)-Dhi-(L)-Leu-(L)-TrpOMe]
anti-hypertensive effect (in words) ([2]; dose not stated): bland reduction of pressure
analgesic effect (in words) [4]: moderate analgesic effect

C[C@H](NC(=O)[C@@H]1CCCN1C(=O)OCc1ccccc1)C(=O)NCCc1c[nH]c2ccccc12 [compound 2, Z-(L)-Pro-(L)-Ala-TrpH]
anti-hypertensive effect (in words) ([2]; dose not stated): comparable to that of compound 1
immune response / immuno-stimulating activity (in words) [3]: increased, but to a lesser extent than in the previous compound

COC(=O)[C@H](Cc1c[nH]c2ccccc12)NC(=O)[C@H](CC(C)C)NC(=O)c1ccc[nH]1 [compound 9, 2-Pyrrolyl-(L)-Leu-(L)-TrpOMe]
anti-hypertensive effect (in words) ([2]; dose not stated): slight effect on pressure
anti-inflammatory effect (in words) [5]: bland reduction of inflammatory responses

COC(=O)[C@H](Cc1c[nH]c2ccccc12)NC(=O)[C@H](CC(C)C)NC(=O)c1ccco1 [compound 8, 2-Fur-(L)-Leu-(L)-TrpOMe]
anti-hypertensive effect (in words) ([2]; 4 mg/Kg i.v.): slight anti-hypertensive effect
anti-inflammatory effect (in words) [5]: slight antiinflammatory effect
immune response / immuno-stimulating activity (in words) [3]: strongly stimulated even with small doses of peptide
